Measured values from ChEMBL document CHEMBL5390265, “Design, Synthesis, and Pharmacological Evaluation of Multisubstituted Pyrido[4,3-d]pyrimidine Analogues Bearing Deuterated Methylene Linkers as Potent KRASG12D Inhibitors” (J Med Chem, 2023).
Calls of active or inactive are those of the source. The calls are words filed in the database; no cut-off is given here.

How the values were obtained:
ASPC1 [1] = assay: Antiproliferative activity against human ASPC1 cells harboring […] assessed as inhibition of cell growth incubated for 5 days by crystal violet staining analysis; type: functional, cell-based; conditions: Homo sapiens, ASPC1, 120 h
AGS [2] = assay: Antiproliferative activity against human AGS cells harboring […] assessed as inhibition of cell growth incubated for 5 days by crystal violet staining analysis; type: functional, cell-based; conditions: Homo sapiens, AGS, 120 h
A549 = assay: Antiproliferative activity against human A549 cells harboring […] assessed as inhibition of cell growth incubated for 5 days by crystal violet staining analysis; type: functional, cell-based; conditions: Homo sapiens, A549, 120 h
NCI-H1299 = assay: Antiproliferative activity against human NCI-H1299 cells harboring KRAS wild type assessed as inhibition of cell growth incubated for 5 days by crystal violet staining analysis; type: functional, cell-based; conditions: NCI-H1299, 120 h
[3] = Half life in Sprague-Dawley rat at 1 mg/kg,iv measured upto 24 hrs by LC-MS/MS analysis; type: ADME, organism-based; conditions: in vivo
[4] = AUC in Sprague-Dawley rat at 1 mg/kg,iv measured upto 24 hrs by LC-MS/MS analysis; type: ADME, organism-based; design: dose 1 mg/kg, time < 24 hrs, route iv; conditions: in vivo
[5] = Clearance in Sprague-Dawley rat at 1 mg/kg,iv measured upto 24 hrs by LC-MS/MS analysis; type: ADME, organism-based; conditions: in vivo
[6] = Inhibition of recombinant human His6-tagged KRAS4B G12D mutant incubated for 1 hr by HTRF assay
GTPase KRas [7] = biological target: T1, GTPase KRas (Homo sapiens, UniProt P01116); assay: Inhibition of recombinant human GTP-bound KRAS wild type (1 to 169 residues) incubated for 1 hr by HTRF assay
GTPase KRas [8] = biological target: T1, GTPase KRas; assay: Inhibition of KRAS in human ASPC1 cells assessed as downregulation of ERK phosphorylation at 0.65 nM incubated for 3 hrs by immunoblotting analysis; type: cell-based; conditions: tested as the 2H-labelled form
GTPase KRas [9] = biological target: T1, GTPase KRas; assay: Inhibition of KRAS in human ASPC1 cells assessed as downregulation of ERK phosphorylation incubated for 3 hrs by immunoblotting analysis; type: cell-based; conditions: tested as the 2H-labelled form
GTPase KRas [10] = biological target: T1, GTPase KRas; assay: Inhibition of KRAS in human ASPC1 cells assessed as downregulation of AKT phosphorylation incubated for 3 hrs by immunoblotting analysis; type: cell-based; conditions: tested as the 2H-labelled form
GTPase KRas [11] = biological target: T1, GTPase KRas; assay: Inhibition of KRAS in human AGS cells assessed as downregulation of ERK phosphorylation incubated for 3 hrs by immunoblotting analysis; type: cell-based; conditions: tested as the 2H-labelled form
GTPase KRas [12] = biological target: T1, GTPase KRas; assay: Inhibition of KRAS in human AGS cells assessed as downregulation of AKT phosphorylation incubated for 3 hrs by immunoblotting analysis; type: cell-based; conditions: tested as the 2H-labelled form
GTPase KRas [13] = biological target: T1, GTPase KRas; assay: Inhibition of KRAS in human ASPC1 cells assessed as downregulation of AKT phosphorylation at 0.65 nM incubated for 3 hrs by immunoblotting analysis; type: cell-based; conditions: tested as the 2H-labelled form
GTPase KRas [14] = biological target: T1, GTPase KRas; assay: Inhibition of KRAS in human AGS cells assessed as downregulation of ERK phosphorylation at 0.65 nM incubated for 3 hrs by immunoblotting analysis; type: cell-based; conditions: tested as the 2H-labelled form
GTPase KRas [15] = biological target: T1, GTPase KRas; assay: Inhibition of KRAS in human AGS cells assessed as downregulation of AKT phosphorylation at 0.65 nM incubated for 3 hrs by immunoblotting analysis; type: cell-based; conditions: tested as the 2H-labelled form
GTPase KRas [16] = biological target: T1, GTPase KRas; assay: Inhibition of KRAS in human ASPC1 cells assessed as downregulation of ERK phosphorylation at 6.25 to 100 nM incubated for 3 hrs by immunoblotting analysis; type: cell-based; conditions: dose 6.25-100 nM, tested as the 2H-labelled form
ASPC1 [17] = assay: Antitumor activity against human ASPC1 cells xenografted in mouse assessed as inhibition of ERK phosphorylation level at 10 mg/kg,ip administrated twice daily for 20 consecutive days by immunoblotting analysis; type: functional, organism-based; conditions: tested as the 2H-labelled form
ASPC1 [18] = assay: Antitumor activity against human ASPC1 cells xenografted in mouse assessed as inhibition of ERK phosphorylation level at 20 mg/kg,ip administrated twice daily for 20 consecutive days by immunoblotting analysis; type: functional, organism-based; conditions: tested as the 2H-labelled form
ASPC1 [19] = assay: Antitumor activity against human ASPC1 cells xenografted in mouse assessed as inhibition of AKT phosphorylation level at 10 mg/kg,ip administrated twice daily for 20 consecutive days by immunoblotting analysis; type: functional, organism-based; conditions: tested as the 2H-labelled form
ASPC1 [20] = assay: Antitumor activity against human ASPC1 cells xenografted in mouse assessed as inhibition of AKT phosphorylation level at 20 mg/kg,ip administrated twice daily for 20 consecutive days by immunoblotting analysis; type: functional, organism-based; conditions: tested as the 2H-labelled form
ASPC1 [21] = assay: Antitumor activity against human ASPC1 cells xenografted in mouse assessed as inhibition of Ki-67 expression level at 10 mg/kg,ip administrated twice daily for 20 consecutive days by immunohistochemistry analysis; type: functional, organism-based; conditions: tested as the 2H-labelled form
ASPC1 [22] = assay: Antitumor activity against human ASPC1 cells xenografted in mouse assessed as inhibition of Ki-67 expression level at 20 mg/kg,ip administrated twice daily for 20 consecutive days by immunohistochemistry analysis; type: functional, organism-based; conditions: tested as the 2H-labelled form
[23] = Metabolic stability in rat liver microsomes assessed as half life at 150 uM measured after 60 mins in presence of NADPH by LC-MS/MS analysis; type: ADME, Microsome
[24] = Metabolic stability in monkey liver microsomes assessed as half life at 150 uM measured after 60 mins in presence of NADPH by LC-MS/MS analysis; type: ADME, Macaca mulatta, Microsome; conditions: rhesus monkey
[25] = Metabolic stability in dog liver microsomes assessed as half life at 150 uM measured after 60 mins in presence of NADPH by LC-MS/MS analysis; type: ADME, Canis lupus familiaris, Microsome
[26] = Metabolic stability in rat liver microsomes assessed as intrinsic clearance at 150 uM measured after 60 mins in presence of NADPH by LC-MS/MS analysis; type: ADME, Microsome; conditions: read-out: CLH
[27] = Metabolic stability in monkey liver microsomes assessed as intrinsic clearance at 150 uM measured after 60 mins in presence of NADPH by LC-MS/MS analysis; type: ADME, Macaca mulatta, Microsome; conditions: rhesus monkey, read-out: CLH
[28] = Metabolic stability in dog liver microsomes assessed as intrinsic clearance at 150 uM measured after 60 mins in presence of NADPH by LC-MS/MS analysis; type: ADME, Canis lupus familiaris, Microsome; conditions: read-out: CLH
ASPC1 [29] = assay: Induction of apoptosis in human ASPC1 cells harboring […] assessed as early apoptotic cells at 25 uM incubated for 24 hrs by annexin V and propidium iodide staining based flow cytometry analysis (reference value: 5.22%); type: functional
ASPC1 [30] = assay: Induction of apoptosis in human ASPC1 cells harboring […] assessed as late apoptotic cells at 25 uM incubated for 24 hrs by annexin V and propidium iodide staining based flow cytometry analysis (reference value: 6.96%); type: functional
AGS [31] = assay: Induction of apoptosis in human AGS cells harboring […] assessed as early apoptotic cells at 25 uM incubated for 24 hrs by annexin V and propidium iodide staining based flow cytometry analysis (reference value: 4.05%); type: functional
AGS [32] = assay: Induction of apoptosis in human AGS cells harboring […] assessed as late apoptotic cells at 25 uM incubated for 24 hrs by annexin V and propidium iodide staining based flow cytometry analysis (reference value: 7.74%); type: functional
ASPC1 [33] = assay: Antitumor activity against human ASPC1 cells xenografted in mouse assessed as inhibition of tumor growth at 20 mg/kg,ip administrated twice daily for 20 consecutive days relative to control; type: functional; conditions: read-out: TGI
[34] = Toxicity in mouse xenografted with human ASPC1 cells assessed as serum creatinine level at 20 mg/kg,ip administrated twice daily for 20 consecutive days (reference value: 28.2 +/- 2.1 umol/L); type: organism-based; conditions: in vivo
[35] = Toxicity in mouse xenografted with human ASPC1 cells assessed as serum blood urea nitrogen level at 20 mg/kg,ip administrated twice daily for 20 consecutive days (reference value: 16.3 +/- 1.6 mmol/L); type: organism-based; conditions: in vivo
ASPC1 [36] = assay: Antitumor activity against human ASPC1 cells xenografted in mouse assessed as inhibition of tumor growth at 10 mg/kg,ip administrated twice daily for 20 consecutive days relative to control; type: functional; conditions: read-out: TGI

SMILES	IC50 (ASPC1 [1]) [nM]	IC50 (AGS [2]) [nM]	IC50 (A549) [nM]	IC50 (NCI-H1299) [nM]	half-life [3] [min]	AUC at 24 h [4] [ng·h/mL]	clearance [5] [mL/min/kg]	IC50 [6] [nM]	IC50 (GTPase KRas [7]) [nM]	inhibition (GTPase KRas [9])	inhibition (GTPase KRas [10])	inhibition (GTPase KRas [11])	inhibition (GTPase KRas [12])	Activity (ASPC1 [17])	Activity (ASPC1 [18])	Activity (ASPC1 [19])	Activity (ASPC1 [20])	Activity (ASPC1 [21])	Activity (ASPC1 [22])	inhibition in vivo at 20 mg/kg (ASPC1 [33]) [%]	other results
[2H]C([2H])(Oc1nc(NCC2(N(C)C)CCC2)c2cnc(-c3cc(N)cc4ccc(F)c(C#C)c34)c(F)c2n1)C12CCCN1CC(=C(F)F)C2 (stereo not given)	28.4	12	700	> 5000	565	218	81.1	–	–	–	–	–	–	–	–	–	–	–	–	–	–
[2H]C([2H])(Oc1nc(N2C[C@H]3CC[C@@H](C2)N3)c2cnc(-c3cccc4ccc(F)c(C#C)c34)c(F)c2n1)C12CCCN1CC(=C(F)F)C2 (stereo not given in full)	23.7	22.5	1090	1410	–	–	–	2.21	20.3	–	–	–	–	–	–	–	–	–	–	–	–
C#Cc1c(F)ccc2cc(N)cc(-c3ncc4c(N5C[C@H]6CC[C@@H](C5)N6)nc(OCC56CCCN5CC(=C(F)F)C6)nc4c3F)c12 (stereo not given in full)	–	–	–	–	–	–	–	–	–	Dose-Dependent Effect	Dose-Dependent Effect	Dose-Dependent Effect	Dose-Dependent Effect	Active	Active	Active	Active	Active	Active	–	inhibition (GTPase KRas [8]): Active; inhibition (GTPase KRas [13]): Active; inhibition (GTPase KRas [14]): Active; inhibition (GTPase KRas [15]): Active; inhibition (GTPase KRas [16]): > 90%
C#Cc1c(F)ccc2cc(O)cc(-c3ncc4c(N5C[C@H]6CC[C@@H](C5)N6)nc(OC[C@@]56CCCN5C[C@H](F)C6)nc4c3F)c12	7.9	1.4	> 5000	> 5000	66	188	91.7	1.24	–	–	–	–	–	–	–	–	–	–	–	73.3	half-life at 150 µM [23]: 173 min; half-life at 150 µM [24]: 34.1 min; half-life at 150 µM [25]: 82.5 min; microsomal CLint at 150 µM [26]: 8 µL/min/mg; microsomal CLint at 150 µM [27]: 40.6 µL/min/mg; microsomal CLint at 150 µM [28]: 16.8 µL/min/mg; Activity (ASPC1 [29]): 8.65%; Activity (ASPC1 [30]): 12.1%; Activity (AGS [31]): 9.27%; Activity (AGS [32]): 10.4%; Activity [34]: 24.7 µmol/L; Activity [35]: 14 mmol/L
C#Cc1c(F)ccc2cc(O)cc(-c3ncc4c(NCC5(N(C)C)CCC5)nc(OCC56CCCN5CC(=C(F)F)C6)nc4c3F)c12 (stereo not given)	–	–	–	–	–	–	–	–	–	Dose-Dependent Effect	Dose-Dependent Effect	Dose-Dependent Effect	Dose-Dependent Effect	Active	Active	Active	Active	Active	Active	–	–
[2H]C([2H])(Oc1nc(NCC2(N(C)C)CCC2)c2cnc(-c3cc(O)cc4ccc(F)c(C#C)c34)c(F)c2n1)C12CCCN1CC(=C(F)F)C2 (stereo not given)	1.7	0.6	499	1820	415	562	33.4	1.21	18.5	–	–	–	–	–	–	–	–	–	–	68.4	inhibition in vivo at 10 mg/kg (ASPC1 [36]): 54.7%
